One compound from patent US5366982A (priority 1990, dated 1994) can be followed below.

By IC50 is commonly meant the concentration needed to halve the response being measured.

The target of assay [1] is leukotriene B4 receptors (Cavia porcellus, UniProt H0VYV8). The assay can be described thus: biochemical. It counts as binding, guinea-pig. The conditions noted are these: Table XIX; guinea-pig spleen membranes, tritium-labelled LTB4; read-out: IC50 Binding (Cheng).
Assay [2] has as its system guinea-pig pulmonary parenchyma. The assay can be described thus: L. Parenchyma: guinea-pig pulmonary parenchyma contraction antagonism induced by LTB4 (Sirois). It counts as cell-based. To be noted: Cavia porcellus; Table XIX; guinea-pig pulmonary parenchyma contraction induced by LTB4; read-out: IC50 L. Parenchyma. The protocol:
Further, compounds of this invention are shown to be leukotriene B4 antagonists in the technique of guinea-pig pulmonary parenchyma contraction antagonism induced by LTB4 described by P. Sirois et al., Pharmacology, 31, 225-236 (1985). In this technique, products are active at concentrations of between about 1 to about 10,000 nM.

Chain of leukotriene B4 receptors (H0VYV8 1-348): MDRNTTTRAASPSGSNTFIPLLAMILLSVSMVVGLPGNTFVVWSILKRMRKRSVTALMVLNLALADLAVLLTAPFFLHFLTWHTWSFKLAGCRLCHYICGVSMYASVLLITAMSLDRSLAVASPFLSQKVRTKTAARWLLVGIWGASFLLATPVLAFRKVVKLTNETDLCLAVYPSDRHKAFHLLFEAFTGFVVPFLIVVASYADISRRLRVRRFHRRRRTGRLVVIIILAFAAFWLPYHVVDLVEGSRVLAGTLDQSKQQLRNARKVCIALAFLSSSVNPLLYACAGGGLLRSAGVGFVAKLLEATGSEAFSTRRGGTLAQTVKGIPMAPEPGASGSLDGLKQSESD

On to `COC(=O)CCCCCOc1cc(-c2ccccc2)cc(-c2ccccc2)n1` [methyl 6-[(4,6-diphenyl-2-pyridyl)oxy]hexanoate], for which the values for the IC50 in assay [1] and in assay [2] were 40 nM and > 10000 nM, respectively.
